Measurements taken from ChEMBL document CHEMBL1157398, “Ymf 1029A-E, preussomerin analogues from the fresh-water-derived fungus YMF 1.01029” (2008).

Key:
Format in all cases: functional
[1] = system: Bursaphelenchus xylophilus; experiment: Nematicidal activity against Bursaphelenchus xylophilus at 200 ug/ml after 24 hrs
[2] = system: Bursaphelenchus xylophilus; experiment: Nematicidal activity against Bursaphelenchus xylophilus at 200 ug/ml after 48 hrs
[3] = system: Bursaphelenchus xylophilus; experiment: Nematicidal activity against Bursaphelenchus xylophilus at 100 ug/ml after 24 hrs
[4] = system: Bursaphelenchus xylophilus; experiment: Nematicidal activity against Bursaphelenchus xylophilus at 100 ug/ml after 48 hrs

In the case of `Oc1ccc2c3c1[C@@H](O)[C@H]1O[C@H]1[C@]31Oc3cccc4c3[C@](O2)(O1)[C@H](O)C[C@@H]4O`, the Activity [1] is reported as 54.8%, the Activity [2] is reported as 62.3% and the Activity [3] is reported as 25.6%. The Activity [4] was 35.5%.
Work on `O=C1CC[C@]23Oc4ccc(O)c5c4[C@](Oc4cccc1c42)(O3)[C@@H]1O[C@@H]1[C@@H]5O` yielded an Activity [1] of 47.9%, an Activity [2] of 60.7% and an Activity [3] of 33.7%. For the same compound, the Activity [4] was 44.1%.
Work on `O=C1c2c(O)ccc3c2[C@@]2(Oc4cccc5c4[C@](O3)(O2)[C@H](O)C[C@@H]5O)[C@@H]2O[C@H]12` yielded an Activity [1] of 52.3%, an Activity [2] of 64.2% and an Activity [3] of 27.8%. It also gave an Activity [4] of 39.6%.
With `O=C1CC[C@H](O)c2cc(O)cc(O)c21` the Activity [1] was 51.2%, the Activity [2] was 57.3% and the Activity [3] was 23.7%. The Activity [4] was 46.7%.
Work on `O=C1C[C@@H](O)[C@]23Oc4ccc(O)c5c4[C@](Oc4cccc1c42)(O3)[C@@H]1O[C@@H]1[C@@H]5O` yielded an Activity [1] of 56.7%, an Activity [2] of 70.3% and an Activity [3] of 45.2%. For the same compound, the Activity [4] was 66.4%.
Compound `O=C1CCC(O)c2cccc(O)c21` (racemic) [4,8-DIHYDROXY-1-TETRALONE] has an Activity [1] of 53.4%, an Activity [2] of 58.3% and an Activity [3] of 34.7%. For the same compound, the Activity [4] was 43.8%.
For `CO[C@@H]1CC(=O)c2cccc3c2[C@@]12Oc1ccc(O)c4c1[C@](O3)(O2)[C@@H]1O[C@@H]1[C@@H]4O` [PREUSSOMERIN C], the Activity [1] was 59.3%, the Activity [2] was 78.6% and the Activity [3] was 50.2%. For the same compound, the Activity [4] was 67.4%.
`O=C1C=C[C@]23Oc4ccc(O)c5c4[C@](Oc4cccc1c42)(O3)[C@@H]1O[C@@H]1[C@@H]5O` [PREUSSOMERIN D] showed an Activity [1] of 60.4%, an Activity [2] of 83.7% and an Activity [3] of 53.8%. For the same compound, the Activity [4] was 76.5%.
